In US8507504B2, “Process for producing bicycloaniline derivatives” (Merck Sharp & Dohme Corp., priority 2008, dated 2013):

System: Human colon cancer cells WiDr
Experiment: Tumor growth inhibitory effect, WiDr xenograft in nude rats, combined with gemcitabine
Type: in vivo, F344/N Jcl-rnu nude rats
Conditions: summary of Table 1
Method: Pharmacological Test 2 (Tumor Growth Inhibitory Effect)
Human colon cancer cells WiDr (obtained from ATCC) were implanted into the subcutaneous area of the back of F344/N Jcl-rnu nude rats. 12 days after the implantation, 5 mg/kg of gemcitabine (Gemzar, from Eli Lily) was intravenously administered to them; and after 24 hours, a test compound suspended in a solvent (0.5% methyl cellulose) was orally administered thereto. This was repeated once a week for 3 weeks. The tumor volume (0.5×major diameter×(minor diameter)^2) was measured on days 0, 3, 6, 10, 13, 17, 20, 24 and 27 (the first gemcitabine administration is on day 0). The relative tumor volume was calculated, based on the tumor volume on day 0, as 1. The tumor growth rate (% T/C) was obtained according to the formulae mentioned below.
In case where the tumor volume change from day 0 in the test compound administration group is more than 0 (>0): % T/C=(tumor volume change in the test compound group on days 3, 6, 10, 13, 17, 20, 24 and 27/tumor volume change in the control group on days 3, 6, 10, 13, 17, 20, 24 and 27)×100.
In case where the tumor volume change from day 0 in the test compound administration group is less than 0 (<0): % T/C=(tumor volume change in the test compound group on days 3, 6, 10, 13, 17, 20, 24 and 27/tumor volume […] in the test compound group on day 0)×100. […]

**Q.** Which “tumor growth rate (result in words)” value does the source give for Nc1ccn([C@@H]2O[C@H](CO)[C@@H](O)C2(F)F)c(=O)n1 [Gemcitabine, gemcitabine] here?
**A.** reduced the tumor growth rate
